What follows are compounds tested against Cytochrome P450 3A4 (Homo sapiens, UniProt P08684) (assay: log (1/Km) value for human liver microsome cytochrome P450 3A4). Details: microsomes.
Chain of Cytochrome P450 3A4 (P08684 whole entry): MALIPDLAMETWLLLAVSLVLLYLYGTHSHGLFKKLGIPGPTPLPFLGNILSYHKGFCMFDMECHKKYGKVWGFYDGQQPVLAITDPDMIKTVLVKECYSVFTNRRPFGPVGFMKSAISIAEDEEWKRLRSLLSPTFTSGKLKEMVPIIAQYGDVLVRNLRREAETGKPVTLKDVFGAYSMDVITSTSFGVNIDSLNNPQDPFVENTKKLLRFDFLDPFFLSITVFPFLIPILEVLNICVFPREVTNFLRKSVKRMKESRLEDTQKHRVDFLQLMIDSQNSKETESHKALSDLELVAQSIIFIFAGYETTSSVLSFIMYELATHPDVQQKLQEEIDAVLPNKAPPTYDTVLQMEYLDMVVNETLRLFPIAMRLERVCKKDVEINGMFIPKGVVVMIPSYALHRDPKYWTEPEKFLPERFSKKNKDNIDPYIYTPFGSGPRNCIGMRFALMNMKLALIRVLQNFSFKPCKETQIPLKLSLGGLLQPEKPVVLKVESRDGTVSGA

Question: For `C/C=C/c1ccc(OC)c(CN[C@H]2C3CCN(CC3)[C@H]2C(c2ccccc2)c2ccccc2)c1`, which “Log 1/Km” value is on record?
Answer: The value was -1.3424.

Question: Which “Log 1/Km” value does the source give for `O=C(N[C@H](/C=C/S(=O)(=O)c1ccccc1)CCc1ccccc1)[C@H](Cc1ccccc1)NC(=O)N1CCOCC1` here?
Answer: Its value is -1.4843.

Question: How did the “Log 1/Km” value turn out when `CN(C)c1ccc([C@H]2C[C@]3(C)[C@@H](CC[C@]3(O)CCCO)C3CCC4=CC(=O)CCC4=C32)cc1` (single isomer, unassigned) [ONAPRISTONE] was run?
Answer: The value was -1.2923.

Question: `O=[N+]([O-])c1ccc2ccc3cccc4ccc1c2c34` [1-NITROPYRENE] was tested. Which “Log 1/Km” value did it give?
Answer: Its value is -0.5185.

Question: How did the “Log 1/Km” value turn out when `CN(C)Cc1nnc2n1-c1ccc(Cl)cc1C(c1ccccc1)=NC2` [ADINAZOLAM] was run?
Answer: The value was -1.9628.

Question: How did the “Log 1/Km” value turn out when `Cc1nnc2n1-c1ccc(Cl)cc1C(c1ccccc1)=NC2` [ALPRAZOLAM] was run?
Answer: The value was -2.4232.

Question: `CN(C)CCC=C1c2ccccc2CCc2ccccc21` [AMITRIPTYLINE] was tested. Which “Log 1/Km” value did it give?
Answer: Its value is -1.8407.

Question: How did the “Log 1/Km” value turn out when `ClC(Cl)Br` [BROMODICHLOROMETHANE] was run?
Answer: Its value is -1.4472.

Question: For `CCCCN1CCCC[C@@H]1C(=O)Nc1c(C)cccc1C` [BUPIVACAINE], which “Log 1/Km” value is on record?
Answer: Its value is -2.0967.

Question: With `NC(=O)N1c2ccccc2C=Cc2ccccc21` [CARBAMAZEPINE] as the compound, how does the “Log 1/Km” value read?
Answer: Its value is -2.6532.

Question: `CC(C)(C)NCC(O)COc1cccc2c1CCC(=O)N2` (stereo not drawn) [CARTEOLOL] was tested. Which “Log 1/Km” value did it give?
Answer: The value was -1.8432.

Question: For `CN(C)CCCC1(c2ccc(F)cc2)OCc2cc(C#N)ccc21` (stereo not drawn) [CITALOPRAM], which “Log 1/Km” value is on record?
Answer: Its value is -2.4548.

Question: For `CC[C@H]1OC(=O)[C@H](C)[C@@H](O[C@H]2C[C@@](C)(OC)[C@@H](O)[C@H](C)O2)[C@H](C)[C@@H](O[C@@H]2O[C@H](C)C[C@H](N(C)C)[C@H]2O)[C@](C)(OC)C[C@@H](C)C(=O)[C@H](C)[C@@H](O)[C@]1(C)O` [CLARITHROMYCIN], which “Log 1/Km” value is on record?
Answer: The value was -1.6875.

Question: For `Nc1ccc(S(=O)(=O)c2ccc(N)cc2)cc1` [DAPSONE], which “Log 1/Km” value is on record?
Answer: The value was -2.2304.

Question: Which “Log 1/Km” value does the source give for `CC(=O)O[C@@]12CO[C@@H]1C[C@H](O)[C@@]1(C)C(=O)[C@H](O)C3=C(C)[C@@H](OC(=O)[C@H](O)[C@@H](NC(=O)OC(C)(C)C)c4ccccc4)C[C@@](O)([C@@H](OC(=O)c4ccccc4)[C@H]21)C3(C)C.O.O.O` [DOCETAXEL] here?
Answer: The value was -0.0414.

Question: How did the “Log 1/Km” value turn out when `CC[C@H]1OC(=O)[C@H](C)[C@@H](O[C@H]2C[C@@](C)(OC)[C@@H](O)[C@H](C)O2)[C@H](C)[C@@H](O[C@@H]2O[C@H](C)C[C@H](N(C)C)[C@H]2O)[C@](C)(O)C[C@@H](C)C(=O)[C@H](C)[C@@H](O)[C@]1(C)O` [ERYTHROMYCIN] was run?
Answer: The value was -1.7853.

Question: How did the “Log 1/Km” value turn out when `CCOc1ccc2ccc(=O)oc2c1` [ETHOXYCOUMARIN] was run?
Answer: Its value is -3.4771.

Question: How did the “Log 1/Km” value turn out when `CN1C(=O)CN=C(c2ccccc2F)c2cc([N+](=O)[O-])ccc21` [FLUNITRAZEPAM] was run?
Answer: Its value is -2.1892.

Question: `C[C@]12CCC(=O)C=C1CC[C@@H]1[C@@H]2[C@@H](O)C[C@@]2(C)[C@H]1CC[C@]2(O)C(=O)CO` [HYDROCORTISONE] was tested. Which “Log 1/Km” value did it give?
Answer: Its value is -1.1818.

Question: `CCc1c2c(nc3ccc(OC(=O)N4CCC(N5CCCCC5)CC4)cc13)-c1cc3c(c(=O)n1C2)COC(=O)[C@]3(O)CC` [IRINOTECAN] was tested. Which “Log 1/Km” value did it give?
Answer: Its value is -1.2648.

Question: With `CN(C)c1ccc([C@H]2C[C@@]3(C)[C@@H](CC[C@@]3(O)/C=C\CO)[C@@H]3CCC4=CC(=O)CCC4=C32)cc1` [LILOPRISTONE] as the compound, how does the “Log 1/Km” value read?
Answer: The value was -0.9445.

Question: Which “Log 1/Km” value does the source give for `COc1ccc2[nH]c([S+]([O-])Cc3ncc(C)c(OC)c3C)nc2c1` (stereo not drawn) [OMEPRAZOLE] here?
Answer: The value was -1.6902.

Question: With `CC(=O)O[C@H]1C(=O)[C@@]2(C)[C@H]([C@H](OC(=O)c3ccccc3)[C@]3(O)C[C@H](OC(=O)[C@H](O)[C@@H](NC(=O)c4ccccc4)c4ccccc4)C(C)=C1C3(C)C)[C@]1(OC(C)=O)CO[C@@H]1C[C@@H]2O` [PACLITAXEL] as the compound, how does the “Log 1/Km” value read?
Answer: Its value is -1.2553.

Question: How did the “Log 1/Km” value turn out when `O=c1[nH]c2ccccc2n1C1CCN(CCCC(c2ccc(F)cc2)c2ccc(F)cc2)CC1` [PIMOZIDE] was run?
Answer: The value was -0.7559.

Question: For `CO[C@H]1/C=C/O[C@@]2(C)Oc3c(C)c(O)c4c(c3C2=O)C2=NC3(CCN(CC(C)C)CC3)NC2=C(NC(=O)/C(C)=C\C=C\[C@H](C)[C@H](O)[C@@H](C)[C@@H](O)[C@@H](C)[C@H](OC(C)=O)[C@@H]1C)C4=O` [RIFABUTIN], which “Log 1/Km” value is on record?
Answer: The value was -1.0373.

Question: `C/C=C1/C[C@@H](C)[C@@](C)(O)C(=O)OCC2=CCN3CC[C@@H](OC1=O)[C@@H]23` [SENECIONINE] was tested. Which “Log 1/Km” value did it give?
Answer: The value was -2.4772.

Question: For `CO[C@H]1C[C@@H]2CC[C@@H](C)[C@@](O)(O2)C(=O)C(=O)N2CCCC[C@H]2C(=O)O[C@H]([C@H](C)C[C@@H]2CC[C@@H](O)[C@H](OC)C2)CC(=O)[C@H](C)/C=C(\C)[C@@H](O)[C@@H](OC)C(=O)[C@H](C)C[C@H](C)/C=C/C=C/C=C/1C` [SIROLIMUS], which “Log 1/Km” value is on record?
Answer: The value was -0.9069.

Question: For `C=CC[C@@H]1/C=C(\C)C[C@H](C)C[C@H](OC)[C@H]2O[C@@](O)(C(=O)C(=O)N3CCCC[C@H]3C(=O)O[C@H](/C(C)=C/[C@@H]3CC[C@@H](O)[C@H](OC)C3)[C@H](C)[C@@H](O)CC1=O)[C@H](C)C[C@@H]2OC` [TACROLIMUS ANHYDROUS], which “Log 1/Km” value is on record?
Answer: The value was -0.792.

Question: Which “Log 1/Km” value does the source give for `CC/C(=C(\c1ccccc1)c1ccc(OCCN(C)C)cc1)c1ccccc1` [TAMOXIFEN] here?
Answer: Its value is -1.9912.

Question: For `C[C@H](CCC(=O)NCCS(=O)(=O)O)[C@H]1CC[C@H]2[C@@H]3[C@H](O)C[C@@H]4C[C@H](O)CC[C@]4(C)[C@H]3CC[C@]12C` [TAUROCHENODEOXYCHOLATE], which “Log 1/Km” value is on record?
Answer: Its value is -1.9542.

Question: `CC(C)(C)c1cc(CC2SCNC2=O)cc(C(C)(C)C)c1O` (stereo not drawn) [TAZOFELONE] was tested. Which “Log 1/Km” value did it give?
Answer: The value was -0.996.

Question: How did the “Log 1/Km” value turn out when `CS(=O)(=O)O.C[C@@H]1C[C@H]2[C@@H]3CCC4=CC(=O)C=C[C@]4(C)C3=CC[C@]2(C)[C@H]1C(=O)CN1CCN(c2cc(N3CCCC3)nc(N3CCCC3)n2)CC1` [TIRILAZAD MESYLATE] was run?
Answer: Its value is -0.2601.

Question: Which “Log 1/Km” value does the source give for `Cc1c(C)c2c(c(C)c1O)CCC(C)(COc1ccc(CC3SC(=O)NC3=O)cc1)O2` (stereo not drawn) [TROGLITAZONE] here?
Answer: The value was -2.7918.

Question: `COc1ccc(C(CN(C)C)C2(O)CCCCC2)cc1` (stereo not drawn) [VENLAFAXINE] was tested. Which “Log 1/Km” value did it give?
Answer: Its value is 0.0899.

Question: Which “Log 1/Km” value does the source give for `CC[C@]1(O)C[C@@H]2CN(CCc3c([nH]c4ccccc34)[C@@](C(=O)OC)(c3cc4c(cc3OC)N(C)[C@H]3[C@@](O)(C(=O)OC)[C@H](OC(C)=O)[C@]5(CC)C=CCN6CC[C@]43[C@@H]65)C2)C1` [VINBLASTINE] here?
Answer: Its value is -0.834.

Question: How did the “Log 1/Km” value turn out when `CC[C@]1(O)C[C@@H]2CN(CCc3c([nH]c4ccccc34)[C@@](C(=O)OC)(c3cc4c(cc3OC)N(C)[C@H]3[C@@](O)(C(N)=O)[C@H](O)[C@]5(CC)C=CCN6CC[C@]43[C@@H]65)C2)C1` [VINDESINE] was run?
Answer: The value was -1.3927.

Question: Which “Log 1/Km” value does the source give for `CN1[C@@H]2CC[C@H]1C[C@@H](NC(=O)c1cc(Cl)cc3c1OC(C)(C)C3)C2` [ZATOSETRON] here?
Answer: The value was -2.3901.

Question: `CC(c1cc2ccccc2s1)N(O)C(N)=O` (stereo not drawn) [ZILEUTON] was tested. Which “Log 1/Km” value did it give?
Answer: Its value is -2.1938.

From ChEMBL document CHEMBL1142817, “Modeling K(m) values using electrotopological state: substrates for cytochrome P450 3A4-mediated metabolism” (Bioorg Med Chem Lett, 2005)
